Laboratory results: patent US20070203215A1, “Methods & Compositions For Enhancing Pharmaceutical Treatments” (Taiji Biomedical, Inc., priority 1999, published 2007)
Read-outs that look alike come from different tables or passages of the source.

Legend:
MDA/LCC6^MDR1 tumors = assay: In vivo antitumor efficacy, orthotopic MDA/LCC6^MDR1 tumors; design: species or system SCID/RAG2 mice
Method: Anti-tumor efficacy experiments with orthotopic MDA/LCC6 and MDA/LCC6^MDR1 tumors were conducted in female SCID/RAG2 mice. Ascites propagated cells (2×10^6 in 50 μl) were injected into mammary fat pads bilaterally on day 0 before randomization into groups of 5 mice per group. Paclitaxel (12 mg/kg/dose) was administered QD i.v. (tail vein) in 200 μl saline/Cremophor/ethanol (8/1/1 by volume) on days 5, 12, 19, and 26. The compound of Formula 2-free base (30 mg/kg/dose) was administered BID p.o. by gavage in 100 μl PEG 400/Tween 20 (9/1 by volume) on days 4-6, 11-13, 18-20, and 25-27. Mean body weights were recorded at least every other day. Tumor weight was monitored approximately every other day by caliper measurements and calculated according to the formula (Tumor weight =(length×width^2)÷2). This conversion formula was verified by comparing the calculation derived tumor weights to excised and weighed tumors. Animals bearing ulcerated tumors or where tumor weight exceeded 10% of the animal's body weight were terminated. The weights of the bilateral tumors were averaged for each mouse and mean tumor weights for each treatment group±standard error of the mean were calculated. Statistical analysis was carried out by Mann-Whitney test using GraphPad Prism software (San Diego, Calif.).
The compound of Formula 2 was administered the afternoon before, 2 hours before and 6 hours after each paclitaxel dose. The ability of orally administered Formula 2 compound to reverse MDR in solid tumors in vivo was assessed with the MDA/LCC6^MDR1 model. Because the compound of Formula 2 produced no effect on paditaxel blood levels, focus on up-front therapy (for naive animals) or minimal residual disease models was maintained, as opposed to established tumors. MDA/LCC6^MDR1 cells that express P-gp were resistant to paclitaxel treatment in vitro and this resistance was reversed by the compound of Formula 2 (FIG. 1). […] Similar results were obtained in three independent experiments with two different strains of immunocompromised mice (SCID/RAG-2 and athymic). […]

MCF-7 = assay: Cell proliferation assay; format: cell-based; settings: Homo sapiens, MCF7; Breast carcinoma MCF-7, P-gp Neg; read-out: Formula 2 compound IC50 (inhibition of growth)
Method: (§1) Cell proliferation IC50s and MDR reversal EC50s were determined from 3-day dose-response curves carried out in triplicate in 96-well plates essentially as described by Monks et al. (J. Natl. Cancer Inst., 83:757-66, 1991). Cells were plated in standard growth medium at 2.5 or 5.0×10^4 per well (CCRF-CEM and CEM/VLB1000 respectively) or 5×10^3 per well (all other cell lines) in a final volume of 100 μl. After a 2 h incubation for non-adherent cells and overnight incubation for adherent cells, the initial cell density was determined by fluorescence readout of Alamar Blue metabolism. The compound of Formula 2, cytotoxic agents, or compound vehicles were added to duplicate plates and the incubation was continued for an additional 72 h. Final cell density was determined with Alamar Blue. In some experiments, a standard endpoint assay was used without analysis of initial cell density with Alamar Blue. Similar results were obtained with the two assays. EC50s were derived by nonlinear regression analysis assuming a sigmoidal dose-response using GraphPad Prism Software (San Diego, Calif.). Proliferation assays capable of measuring both cytostatic and cytotoxic responses were carried out as described herein with 15 non-transformed and transformed cell lines, including primary fibroblasts, non-transformed smooth muscle, leukemia, breast, colon, ovarian and uterine carcinoma cells (±P-gp expression). Although the compound of Formula 2 reversed P-gp-mediated MDR in the low nanomolar concentration range, the compound was non-cytotoxic by itself at doses up to 100 μM in all cell lines. […] IC50s for non-specific cytotoxicity were similar in matched cell lines plus and minus P-gp expression. […] If it were, some consistent degree of resistance would be expected in P-gp expressing cells.

Cell proliferation assay = format: cell-based; settings: human, MDA/LCC6^MDR1 breast carcinoma cells (P-gp positive); Breast carcinoma MDA/LCC6^MDR1, P-gp Pos; read-out: Formula 2 compound IC50 (inhibition of growth)
Method: as §1

SKOV3 = assay: Cell proliferation assay; format: cell-based; settings: Homo sapiens, SK-OV-3; Ovarian carcinoma SKOV3, P-gp Neg; read-out: Formula 2 compound IC50 (inhibition of growth)
Method: as §1

MDA/LCC6 = assay: Cell proliferation assay; format: cell-based; settings: Homo sapiens, LCC-6; Breast carcinoma MDA/LCC6, P-gp Neg; read-out: Formula 2 compound IC50 (inhibition of growth)
Method: as §1

SW620 = assay: Cell proliferation assay; format: cell-based; settings: Homo sapiens, SW-620; Colorectal carcinoma SW620, P-gp Neg; read-out: Formula 2 compound IC50 (inhibition of growth)
Method: as §1

CEM/VLB1000 [1] = assay: Cell proliferation assay; format: cell-based; settings: Homo sapiens; Lymphoma CEM/VLB1000, P-gp Pos; read-out: Formula 2 compound IC50 (inhibition of growth)
Method: as §1

[2] = test system: 15 non-transformed and transformed cell lines; assay: Proliferation assays, 15 non-transformed and transformed cell lines (panel statements); format: cell-based, human; settings: for IC50: Homo sapiens, 15 cell lines
Method: as §1

MCF-7/ADR = assay: Reversal of MDR in P-gp-expressing cell line; format: cell-based; settings: Homo sapiens, NCI/ADR-RES, MCF-7/ADR breast, ± SD
Method: as §1

MES-SA/DX5 = assay: Reversal of MDR in P-gp-expressing cell line; format: cell-based; settings: Homo sapiens, MES-SA/DX5 uterine, ± SD
Method: as §1

SK/VLB1000 = assay: Reversal of MDR in P-gp-expressing cell line; format: cell-based; settings: Homo sapiens, SK/VLB1000 ovarian
Method: as §1

HCT-15 = assay: Reversal of MDR in P-gp-expressing cell line; format: cell-based; settings: Homo sapiens; HCT-15 colorectal carcinoma; read-out: Formula 2 compound EC50, reversal of Paclitaxel resistance
Method: as §1

CEM/VLB1000 [3] = assay: Reversal of MDR in P-gp-expressing cell line; format: cell-based; settings: Homo sapiens, CEM/VLB1000 lymphoma, ± SD
Method: as §1

[4] = read-out: Formula 2 compound EC50, reversal of Doxorubicin resistance
[5] = read-out: Formula 2 compound EC50, reversal of Paclitaxel resistance
[6] = read-out: Formula 2 compound EC50, reversal of Vinblastine resistance

Q: What does the source list for `CCOC/C=C/c1ccc(-c2nc(-c3ccc(NC(C)C)cc3)c(-c3ccc(NC(C)C)cc3)[nH]2)cc1` [Formula 2 compound]?
A: In vivo tumor growth (MDA/LCC6^MDR1 tumors; Formula 2 compound and paclitaxel combined, persisted at least two weeks after last paclitaxel dose): statistically significant inhibition of tumor growth; In vivo tumor growth compared to the vehicle control (MDA/LCC6^MDR1 tumors; single agent alone, paclitaxel 12 mg/kg i.v., Formula 2 free base 30 mg/kg p.o.): no significant effect; IC50 (MCF-7): 30000 nM; IC50 at 72 h (Cell proliferation assay): > 100000 nM; IC50 (SKOV3): 48000 nM; IC50 (MDA/LCC6): > 100000 nM; IC50 (SW620): > 100000 nM; IC50 (CEM/VLB1000 [1]): 32000 nM; IC50 ([2]; read-out: Cytostatic IC50, average value): 60000 nM; IC50 ([2]; read-out: Cytostatic IC50s, range over cell lines): 6000 to 170000 nM; Cytotoxicity by itself ([2]; at doses up to 100 μM, all cell lines): non-cytotoxic; EC50 (MCF-7/ADR; [4]): 38 ± 6 nM; EC50 (MCF-7/ADR; [5]): 31 ± 4 nM; EC50 (MCF-7/ADR; [6]): 20 ± 10 nM; EC50 (MES-SA/DX5; [4]): 24 ± 6 nM; EC50 (MES-SA/DX5; [5]): 27 ± 7 nM; EC50 (MES-SA/DX5; [6]): 34 ± 7 nM; EC50 (SK/VLB1000; [5]): 33 nM; EC50 (SK/VLB1000; [6]): 15 nM; EC50 (SK/VLB1000; ± SD, read-out: Formula 2 compound EC50, reversal of Doxorubicin resistance): 25 ± 8 nM; EC50 (HCT-15): 1.6 nM; EC50 (CEM/VLB1000 [3]; [4]): 90 ± 60 nM; EC50 (CEM/VLB1000 [3]; [6]): 70 ± 10 nM
